# Data as given in patent US5763435A, “Sulfate conjugates of ursodeoxycholic acid, and their beneficial use in inflammatory disorders” (priority 1995, dated 1998).
# “And” between values parts separate entries of the source, which are not always exact repeats. Identical values can stand only once.
# Columns and labels:
# [1] = test system: Principal Bile Acids in Liver; assay: Bile acid composition of liver tissue after oral administration (GC-MS); assay type: in vivo, Sprague-Dawley rats
# Procedure: Male Sprague-Dawley rats (Harlan Sprague-Dawley, Inc., Indianapolis, Ind.), weighing 210-290 g, were maintained on a 12-hour light-dark cycle and fed standard laboratory chow ad libitum for 3 days. The animals were then transferred to metabolic cages in which they were housed individually and fed the same diet. UDCA, UDCA 3-sulfate, UDCA 7-sulfate, and UDCA 3,7-disulfate were administered by gavage at a dose of 250 mg/day for 4 consecutive days. Each group comprised 3-6 rats. Body weights of the animals were measured each day. On day 5, the animals were killed by exsanguination under ether anesthesia. Plasma was collected and frozen at -20° C. The liver was removed, rinsed in normal saline, and flash-frozen in liquid nitrogen. Urine and feces were collected every 24 hours and frozen at -20° C. All animals received humane care in compliance with the "Guide for the Care and Use of Laboratory Animals" prepared by the National Academy of Sciences (National Institutes of Health publication no. 86-23, revised in 1985).
# Samples of liver (100 mg) were ground to a fine paste, and bile acids were extracted by reflux and passage through a column of Lipidex 1000 as described above for intestinal contents and feces. Group separation of bile acids, according to their mode of conjugation was achieved by lipophilic anion-exchange chromatography. Extracts from each animal were pooled, and bile acids and their conjugates were separated using Lipidex-DEAP and stepwise elution of the gel bed with the following buffers: 0.1 mol/L acetic acid in 72% ethanol (unconjugated bile acids); 0.3 mol/L acetic acid in 72% ethanol, pH 5.0 (glycine conjugates); 0.15 mol/L acetic acid in 72% ethanol, pH 6.5 (taurine conjugates); and 0.3 mol/L acetic acid in 72% ethanol, pH 9.6 (sulfate conjugates). After evaporation of the buffers, sulfated bile acids were solvolyzed, whereas amidated conjugates were hydrolyzed with 50 U of cholylglycine hydrolase (Sigma Chemical Co.) in 2.5 mL of 0.2 mol/L phosphate buffer, pH 5.6, at 37° C. overnight. The resulting unconjugated bile acids were isolated on Lipidex-DEAP, and the methyl ester-trimethylsilyl ether derivatives were prepared as described above.
# GC-MS analysis was performed using a Finnigan 4635 mass spectrometer (Finnigan Inc., San Jose, Calif.) that housed an identical gas chromatography column operated under the same conditions. Electron ionization (70 eV) mass spectra were recorded over the mass range of 50-800 daltons by repetitive scanning of the eluting components. Identification of bile acids was made on the basis of the gas chromatography retention index relative to a homologous series of n-alkanes, referred to as the methylene unit value, and the mass spectrum compared with authentic standards. Quantification of bile acids was achieved using gas chromatography by comparing the peak height response of the individual bile acids with the peak height response obtained from the internal standard.
# Data are expressed as mean±SEM or as mean values of all animals when extracts were pooled before analysis. Results from different groups were compared using paired and unpaired two-tailed Student's t-test. P values of <0.05 were considered statistically significant.
# bile-flow = assay: Bile-flow and bile acid secretion during i.v. infusion; assay type: in vivo, Sprague-Dawley rats
# Procedure: Adult male Sprague-Dawley rats (body weight 200-230 g) were anesthetized by an intraperitoneal injection of pentobarbital (Nembutal, 7.5 mg/100 g body weight), and maintained under sedation by additional doses. The right jugular vein and the common bile duct were cannulated using PE-50 polyethylene tubing (Clay-Adams, Parsippany, N.J.). Body temperature was maintained throughout the experiment at 37° C. using a rectal probe and a thermostatically controlled heating pad (Harvard Apparatus Co., Inc., Millis, Mass.). Saline was infused at a rate of 1.0 ml/h using a Harvard pump (Harvard Apparatus Co., Inc.) into the jugular vein for a control period of 2h. After collecting two 10 minute bile samples for base-line analysis, the bile acids were individually infused intravenously (i.v.) for 30 minutes in stepwise increasing doses (0.5, 1.0, and 2.0 μmol/min/100 g body weight). Bile acid solutions were prepared in 3% human albumin in 0.45% saline. Six animals were used for each experiment and bile was collected every 10 minutes into preweighed tubes. At the end of the experiment, blood was obtained by cardiac puncture, and urine was obtained by aspiration of the bladder. All biological specimens were stored at -20° C. This animal study protocol (#1 B 10044) was approved by the Bioethics committee of the Children's Hospital Medical Center (Cincinnati, Ohio).
# Bile volume was determined gravimetrically assuming a density of 1 g/ml. Total 3α-hydroxy bile acid concentration in the bile was measured enzymatically before solvolysis (nonsulfated bile acids) and after solvolysis (total bile acids) (Mashige, F., et al., Direct spectrometry of total bile acids in serum. Clin. Chem. 27: 1352-1356 (1981)). The bile acid output was calculated by multiplying the rate of bile-flow by the bile acid concentration. Biliary phospholipids were determined by an enzymatic procedure based on the choline oxidase method (Nippon Shoji Kaisha, Ltd., Osaka, Japan) (Grantz, D., et al., Enzymatic measurement of choline-containing phospholipids in bile. J. Lipid Res. 22: 273-276 (1981)). Cholesterol was also measured enzymatically (Boehringer Mannehim, Indianapolis, Ind.) (Fromm, H., et al., Use of a simple enzymatic assay for cholesterol analysis in human bile. J. Lipid Res. 21: 259-261 (1980)).
# Results were expressed as mean±standard error of mean (SEM). Bile-flow and biliary lipid output were expressed as μl /min/g liver and nmol/min/g liver, respectively. Statistical analysis was made using INSTAT program (Graphpad Software Inc., San Diego, Calif.). Parametric data among groups were analyzed using Student's t-test. The statistical comparisons between the different groups were made by one-way analysis of variance (ANOVA). […] Linear regression analysis was performed. The choleretic activity of each bile acid was determined from the slope of regression line of the correlation between the bile acid secretion rate and bile-flow and was expressed as […]. Comparisons between slopes were made by one-way ANOVA.
# [2] = i.v. infusion 0.5, 1.0, 2.0 μmol/min/100 g, mean ± SEM, six animals
smiles,measurement,setting,value
"C[C@H](CCC(=O)O)[C@H]1CC[C@H]2[C@@H]3[C@@H](OS(=O)(=O)O)C[C@@H]4C[C@H](OS(=O)(=O)O)CC[C@]4(C)[C@H]3CC[C@]12C [UDCA-DS, ursodeoxycholic acid 3,7-disulfate]",Chenodeoxycholic acid concentration in liver,"[1]; oral gavage 250 mg/day, 4 days",0.7 nmol/g
same,Chenodeoxycholic acid percent of hepatic bile acids,"[1]; oral gavage 250 mg/day, 4 days",0.2%
same,Cholic acid concentration in liver,"[1]; oral gavage 250 mg/day, 4 days",163.2 nmol/g
same,Cholic acid percent of hepatic bile acids,"[1]; oral gavage 250 mg/day, 4 days",57.7%
same,Deoxycholic acid concentration in liver,"[1]; oral gavage 250 mg/day, 4 days",17.3 nmol/g
same,Deoxycholic acid percent of hepatic bile acids,"[1]; oral gavage 250 mg/day, 4 days",6.1%
same,Lithocholic acid concentration in liver,"[1]; oral gavage 250 mg/day, 4 days",2.2 nmol/g
same,Lithocholic acid percent of hepatic bile acids,"[1]; oral gavage 250 mg/day, 4 days",0.8%
same,Total bile acid concentration in liver,"[1]; oral gavage 250 mg/day, 4 days",282.7 nmol/g
same,UDCA percent of hepatic bile acids,"[1]; oral gavage 250 mg/day, 4 days",1.7%
same,Δ^22-UDCA concentration in liver,"[1]; oral gavage 250 mg/day, 4 days",5.8 nmol/g
same,Δ^22-UDCA percent of hepatic bile acids,"[1]; oral gavage 250 mg/day, 4 days",2.0%
same,Δ^22-β-Muricholic acid concentration in liver,"[1]; oral gavage 250 mg/day, 4 days",23.0 nmol/g
same,Δ^22-β-Muricholic acid percent of hepatic bile acids,"[1]; oral gavage 250 mg/day, 4 days",8.1%
same,Δ^22-ω-Muricholic acid concentration in liver,"[1]; oral gavage 250 mg/day, 4 days",4.0 nmol/g
same,Δ^22-ω-Muricholic acid percent of hepatic bile acids,"[1]; oral gavage 250 mg/day, 4 days",1.4%
same,α-Muricholic acid concentration in liver,"[1]; oral gavage 250 mg/day, 4 days",6.5 nmol/g
same,α-Muricholic acid percent of hepatic bile acids,"[1]; oral gavage 250 mg/day, 4 days",2.3%
same,β-Muricholic acid concentration in liver,"[1]; oral gavage 250 mg/day, 4 days",50.1 nmol/g
same,β-Muricholic acid percent of hepatic bile acids,"[1]; oral gavage 250 mg/day, 4 days",17.7%
same,ω-Muricholic acid concentration in liver,"[1]; oral gavage 250 mg/day, 4 days",5.0 nmol/g
same,ω-Muricholic acid percent of hepatic bile acids,"[1]; oral gavage 250 mg/day, 4 days",1.8%
same,Hepatic UDCA concentration change (in words),"[1]; oral, vs control",low compared with the control animals
same,"Bile flow, maximum",bile-flow; [2],5.92 ± 0.21 μl/min/g liver
same,"Bile salt output (biliary bile acid secretion rate), maximum",bile-flow; [2],222.40 ± 24.30 nmol/min/g liver and 222.4±24.3 nmol/min/g liver
same,Apparent choleretic activity (slope of regression line),"bile-flow; i.v. infusion, bile acid secretion rate vs bile-flow",16 ± 1 µL/µmol
